Patent EP0102509A1, “Oxamid-acid derivatives, process for their preparation and therapeutical agents containing them” (BASF Aktiengesellschaft, priority 1982, dated 1984)

Test system: passiven cutanen Anaphylaxie (PCA)
Test: Passive cutaneous anaphylaxis (PCA) in rats, oral administration
Assay type: in vivo, Ratte
Details: for ED50: read-out: Hemmung der PCA ED 50 %; for Hemmung der PCA R.W.: relative potency after oral administration, comparison compound A = 1.00
Experimental: Die antiallergische Wirkung wurde an Ratten getestet. Zur Prüfung wurde das Modell der passiven cutanen Anaphylaxie (PCA) verwendet: • Narkotisierte männliche Ratten (100 - 140 g) werden durch intradermale Injektion (rasierte Rückenhaut) von 0,1 ml eines Ovalbumin-Antiserums sensibilisiert. Nach einer Sensibilisierüngsdauer von ca. 48 h erfolgt die Behandlung (orale Applikation) mit unterschiedlichen Dosierungen (10 Tiere/Dosis) der Prüfsubstanzen. 15 bzw. 20 min nach der Behandlung wird eine Antigen/Evansblau-Mischung (10 mg/kg Ovalbumin in 2%iger Evansblau-Lösung) den Versuchstieren intravenös injiziert. 30 min später werden die Tiere getötet, die Rückenhaut abgezogen und auf der inneren Oberfläche der Durchmesser der kreisförmigen Blaufärbung gemessen. Die Größe der Farbflecke unbehandelter Kontrolltiere ist standardisierbar. Antiallergisch wirksame Substanzen verkleinern dosisabhängig den Durchmesser der Farbflecke. Als ED-50 % wird die Dosis angegeben, die im Vergleich zu medikamentös unbehandelten Kontrolltieren den Durchmesser der Farbflecke um 50 % herabsetzt.

[1] = oral administration, rat, dose that reduces the diameter of the dye spots by 50 % vs untreated controls

Molecule: CCOCCOC(=O)C(=O)Nc1cccc(NC(=O)C(=O)OCCOCC)c1 [Beispiel 2, N,N'-(1,3-Phenylen)-dioxamidsäure-2-ethoxyethylester]
- ED50 [1]: 2.77 mg/kg
- Hemmung der PCA R.W.: 3.10
- Hemmung der PCA R.W. (listed as Bsp. 2): 3,10

Molecule: O=C(O)c1cc(=O)c2c(OCC(O)COc3cccc4oc(C(=O)O)cc(=O)c34)cccc2o1 [Cromolyne, reference compound]
- Antiallergische Wirkung (bis 100 mg/kg p.o., rat PCA): unwirksam
- ED50 [1]: > 100 mg/kg

Molecule: N,N'-(1,3-Phenylen)-dioxamidsäure-2-butoxyethylester [Beispiel 3]
- Hemmung der PCA ED 50 % [1]: ca. 4.64 mg/kg
- Hemmung der PCA R.W.: ca. 1.85
- Hemmung der PCA R.W. (listed as Bsp. 3): 1,85
